Ends that are not written are not given here.
What was measured:
Trio DH2-PH2 = molecular target: T1, Trio DH2-PH2 (Homo sapiens, UniProt O75962); test: Yeast two-hybrid screening for binding to Trio DH2-PH2; details: 3-AT 80-120 mM
T1 construct: made in house
Description: The inventors next reasoned that peptides that would bind stronger to the GEF domain may also be better at inhibiting its activity. The inventors thus generated a library of peptide aptamers derived from TRIPα by random mutagenesis, which the inventors screened for GEF binding in a yeast two-hybrid assay. The inventors chose a system in which the threshold of interaction detection can be modulated by the concentration of the 3-aminotriazole (3-AT) drug (Sardet et al., 1995). Since Tgat is toxic in yeast, the inventors used Trio DH2-PH2 to screen this TRIP-like peptide library. […] These clones were then produced as GST fusions and analyzed for their inhibition of Trio DH2-PH2, using the [3H]-GDP dissociation assay.
An aptamer library derived from TRIPα was created by PCR-based random mutagenesis of TRIPα inserted into the yeast two-hybrid vector pPC86. Sequencing of a statistically representative number of clones yielded a mutation rate of ˜3 mutations/clone. 6×10^5 independent clones were screened for interactors, using Trio DH2-PH2 (in the pPC97 vector) as a bait, in the MAV 103 yeast strain, on high concentrations of 3-AT (3-amino-triazol, Sigma) (80-120 mM). Selected peptides were then produced as GST-fusions and analyzed for their inhibition of Trio DH2-PH2 using the [3H]-GDP dissociation assay.

Lbc = molecular target: T2, Lbc (Homo sapiens, UniProt Q12802); details: shown previously (Schmidt et al., 2002 and unpublished results); cited from earlier work
T2 construct: GST-Dbl (DH-PH domain), GST-Lbc (DH-PH), GST-p63RhoGEF (DH domain) and GST-RhoG were purified as described previously; GST (N); made in house
T2 sequence (Q12802 1994-2333): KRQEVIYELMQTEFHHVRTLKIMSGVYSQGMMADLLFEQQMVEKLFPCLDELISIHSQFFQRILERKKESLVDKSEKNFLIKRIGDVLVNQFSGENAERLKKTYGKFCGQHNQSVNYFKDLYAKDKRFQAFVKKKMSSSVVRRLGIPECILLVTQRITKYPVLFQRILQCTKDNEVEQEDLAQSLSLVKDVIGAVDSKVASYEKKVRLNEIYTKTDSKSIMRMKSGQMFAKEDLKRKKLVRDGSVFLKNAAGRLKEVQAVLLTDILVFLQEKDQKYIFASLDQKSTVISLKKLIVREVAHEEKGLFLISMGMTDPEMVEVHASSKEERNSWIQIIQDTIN

PC12 cells = details: Schmidt et al., 2002; cited from earlier work
[1] = test system: NIH3T3 cells stably expressing GFP-Tgat; test: Tumor formation in Balb/c nude mice grafted with NIH3T3 cells expressing Tgat; assay type: in vivo
Experimental: FIG. 10A represents tumor formation in Balb/c nude mice. NIH3T3 cells stably expressing GFP-Tgat/GST or GFP-Tgat/GSTTRIP E32G were injected subcutaneously into the flanks of Balb/c nude mice and tumor volume was measured every week. The graph is representative of the three independent assays that were performed.
FIG. 10B represents the tumor weights (in grams) after the experiments. Ten weeks post graft, mice were euthanised, tumors were excised and weighed, and the mean tumor weight was plotted on the graph. (*) A paired Student's t-test was performed, matching the samples for each mouse, and the P value was 0.019. Error bars represent standard deviation in all graphs.
Female Balb/c nu/nu mice were purchased from Charles River France and used at 6-8 weeks of age. 12 Balb/c nu/nu mice were subcutaneously grafted with 2×10^6 cells of each cell line on both sides (Tgat on the left and Tgat+TRIPE32G on the right flank of the leg). The appearance of tumors was scored visually every week. 10 weeks post graft, mice were euthanized and tumors excised and weighed. mRNA and protein levels in the tumors were verified by RT-PCR and Western blot (data not shown).

[2] = test system: Tgat-expressing NIH3T3 cells; test: Cell proliferation or apoptosis (data not shown); assay type: cell-based
[3] = test system: Tgat-expressing NIH3T3 cells; test: Focus formation assay of Tgat-expressing NIH3T3 cells; assay type: cell-based; details: GST-tagged peptide stably co-expressed; after 3 weeks of culture
Experimental: FIG. 9A represents the focus formation assay of NIH3T3 cells, stably expressing GFP or GFP-Tgat, together with GST or GST-TRIPE32G.
FIG. 9B represents the quantification of three independent focus formation assays. The number of foci formed by Tgat/GST expressing cells was set to 100%.
NIH3T3 cells were maintained as described previously (Sirvent et al., 2007). Transient transfection experiments were performed using the Jet PEI reagent, according to the manufacturer's protocol (QBiogene Inc.). NIH3T3 cell lines stably expressing GFP-Tgat, GFP-TgatL190E, or GFP-Trio, with or without the GST-TRIP peptides, were generated as follows: the indicated retroviral constructs were transfected into BOSC packaging cells, using the Lipofectamine reagent (Invitrogen Inc.). Forty-eight hours after transfection, virus containing supernatants were collected and used to infect NIH3T3 cells. Infected cells were selected with 6 μg/mL puromycin and/or 1 mg/mL G418 and stable transfectants were pooled after selection. Tgat or TRIP mRNA levels in the different cell lines were monitored by RTPCR, and protein expression levels by Western blot analysis using a polyclonal anti-GFP antibody (Toney Pines Laboratories). […] After staining with Crystal Violet (1%), plates were photographed and foci were scored using the Metamorph software. […]

[4] = test system: Dbl mediated RhoA activation; test: RhoA activation assay (GST-RBD pull-down) in NIH3T3 cells expressing Dbl; assay type: cell-based; details: GFP-tagged peptide
Experimental: FIG. 8 represents the effect of GFP-TRIPE32G on RhoA activation induced by Dbl (left panel) or Tgat (right panel) in NIH3T3 cells, assayed by GST-RBD pulldown. The levels of GTP-bound and total RhoA protein are shown in the upper two panels. Expression levels of Myc-Dbl and of all GFP-tagged proteins are shown in the lower two panels.
The level of GTP-bound RhoA was measured by a GST pulldown assay as described (Schmidt et al., 2002). Briefly, cell lysates were incubated with glutathione beads coated with the recombinant Rho-binding domain (RBD) of the RhoA specific effector Rhotekin (Cytoskeleton Inc.).

AREGADGAICGYNLATLVMLGPSERVFCPLCEPCSSDIYELM [TRIPα]
interaction with Trio DH2-PH2 in yeast two-hybrid assay (Trio DH2-PH2): no interaction | activity on Lbc (Lbc): not active | neurite retraction phenotype induced by Trio DH2-PH2 (PC12 cells): reverting the neurite retraction phenotype

GST-TRIPE32G (AREGADGAICGYNLATLVMLGPSERVFCPLCGPCSSDIYELM; cysteine pairing not given here; also: GST fusion)
number of mice with tumors ([1]; 12 mice grafted subcutaneously, peptide co-expressed with Tgat, Tgat alone ten out of twelve): seven | delay in the formation of tumors ([1]; peptide co-expressed with Tgat, versus Tgat alone): about three | weight of the tumors ([1]; ten weeks post graft, paired Student's t-test P value 0.019): significantly reduced | non-specific effect on cell proliferation or apoptosis [2]: not due to a non-specific effect of TRIPE32G on cell proliferation or apoptosis | foci in Tgat expressing cells [3]: severely reduced | inhibition of oncogenic Dbl mediated RhoA activation in intact cells [4]: not able to inhibit RhoA activation by Dbl

Source: patent US8796415B2, “Inhibitors of guanine exchange factors and their use as anticancer drugs” (Centre National de la Recherche Scientifique, priority 2009, dated 2014)
